According to PubChem BioAssay AID1919000 (Molecular Pharmacology Branch, DTP, NCI, 2023):
One block for each compound: values may come before it.

Tested on: 653999-131-R-J2-PDC complex spheroids, growth % test/control
Assay: Anticancer human tumor 653999-131-R-J2-PDC patient-derived lung adenocarcinoma cell line growth inhibition [AhR]
Conditions: for IC50: curve of first compound; for viability, T/C: stronger effect = lower value
In short: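 Agents were dosed in half-log steps down from roughly clinical Cmax, or from 10 microM where Cmax was unknown, alone and with AhR antagonists. Read-out: percent test/control growth of tumor spheroids containing HUVEC and MSC stromal cells.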

[1] = second compound 0.1 µM, first compound 0.000949 µM
[2] = second compound 0.1 µM, first compound 0.003 µM
[3] = second compound 0.1 µM, first compound 0.00949 µM
[4] = second compound 0.1 µM, first compound 0.03 µM
[5] = second compound 0.1 µM, first compound 0.0949 µM
[6] = second compound 0.1 µM, first compound 0.3 µM
[7] = second compound 0.316 µM, first compound 0.000949 µM
[8] = second compound 0.316 µM, first compound 0.003 µM
[9] = second compound 0.316 µM, first compound 0.00949 µM
[10] = second compound 0.316 µM, first compound 0.03 µM
[11] = second compound 0.316 µM, first compound 0.0949 µM
[12] = second compound 0.316 µM, first compound 0.3 µM
[13] = second compound 1 µM, first compound 0.000949 µM
[14] = second compound 1 µM, first compound 0.003 µM
[15] = second compound 1 µM, first compound 0.00949 µM
[16] = second compound 1 µM, first compound 0.03 µM
[17] = second compound 1 µM, first compound 0.0949 µM
[18] = second compound 1 µM, first compound 0.3 µM
[19] = second compound 3.16 µM, first compound 0.000949 µM
[20] = second compound 3.16 µM, first compound 0.003 µM
[21] = second compound 3.16 µM, first compound 0.00949 µM
[22] = second compound 3.16 µM, first compound 0.03 µM
[23] = second compound 3.16 µM, first compound 0.0949 µM
[24] = second compound 3.16 µM, first compound 0.3 µM
[25] = second compound 10 µM, first compound 0.000949 µM
[26] = second compound 10 µM, first compound 0.003 µM
[27] = second compound 10 µM, first compound 0.00949 µM
[28] = second compound 10 µM, first compound 0.03 µM
[29] = second compound 10 µM, first compound 0.0949 µM
[30] = second compound 10 µM, first compound 0.3 µM
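Further: spheroids exposed to agents for seven days.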
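Wherever viability, T/C is given: 100% = DMSO vehicle control viability.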

- IC50 (second compound 0.1 µM): 22.3 nM
- IC50 (second compound 0.316 µM): 20.4 nM
- IC50 (second compound 1 µM): 21.4 nM
- IC50 (second compound 3.16 µM): 20.4 nM
- IC50 (second compound 10 µM): 4.28 nM
SMILES: CC(C)CC(NC(=O)C(Cc1ccccc1)NC(=O)c1cnccn1)B(O)O (stereo not given) + Cc1cncc(-c2nc(NCCc3c[nH]c4ccccc34)c3ncn(C(C)C)c3n2)c1
- viability, T/C [1]: 94.5%
- viability, T/C [2]: 130%
- viability, T/C [3]: 103%
- viability, T/C [4]: 29.3%
- viability, T/C [5]: 9.65%
- viability, T/C [6]: 3.26%
- viability, T/C [7]: 108%
- viability, T/C [8]: 108%
- viability, T/C [9]: 113%
- viability, T/C [10]: 20%
- viability, T/C [11]: 8.44%
- viability, T/C [12]: 2.71%
- viability, T/C [13]: 100%
- viability, T/C [14]: 126%
- viability, T/C [15]: 112%
- viability, T/C [16]: 24%
- viability, T/C [17]: 7.89%
- viability, T/C [18]: 3.25%
- viability, T/C [19]: 118%
- viability, T/C [20]: 121%
- viability, T/C [21]: 112%
- viability, T/C [22]: 18.5%
- viability, T/C [23]: 4.53%
- viability, T/C [24]: 2.13%
- viability, T/C [25]: 59.6%
- viability, T/C [26]: 66.7%
- viability, T/C [27]: 20.5%
- viability, T/C [28]: 2.12%
- viability, T/C [29]: 0.89%
- viability, T/C [30]: 0.72%

- IC50 (second compound 0.1 µM): 4.27 nM
- IC50 (second compound 0.316 µM): 3.22 nM
- IC50 (second compound 1 µM): 4.17 nM
- IC50 (second compound 3.16 µM): 5.21 nM
- IC50 (second compound 10 µM): < 0.949 nM
SMILES: CCc1c2c(nc3ccc(O)cc13)-c1cc3c(c(=O)n1C2)COC(=O)[C@]3(O)CC + Cc1cncc(-c2nc(NCCc3c[nH]c4ccccc34)c3ncn(C(C)C)c3n2)c1
- viability, T/C [1]: 62.3%
- viability, T/C [2]: 56.1%
- viability, T/C [3]: 38.4%
- viability, T/C [4]: 27.4%
- viability, T/C [5]: 19.4%
- viability, T/C [6]: 13.7%
- viability, T/C [7]: 59.1%
- viability, T/C [8]: 50.6%
- viability, T/C [9]: 39.1%
- viability, T/C [10]: 26.2%
- viability, T/C [11]: 18.3%
- viability, T/C [12]: 13%
- viability, T/C [13]: 67.2%
- viability, T/C [14]: 55%
- viability, T/C [15]: 38.5%
- viability, T/C [16]: 28.1%
- viability, T/C [17]: 19.4%
- viability, T/C [18]: 13.6%
- viability, T/C [19]: 58%
- viability, T/C [20]: 58.1%
- viability, T/C [21]: 42.6%
- viability, T/C [22]: 28%
- viability, T/C [23]: 18.8%
- viability, T/C [24]: 12.3%
- viability, T/C [25]: 36.4%
- viability, T/C [26]: 32.3%
- viability, T/C [27]: 25.5%
- viability, T/C [28]: 16%
- viability, T/C [29]: 11.2%
- viability, T/C [30]: 8.25%

- IC50 (second compound 0.1 µM): > 10000 nM
- IC50 (second compound 0.316 µM): > 10000 nM
- IC50 (second compound 1 µM): > 10000 nM
- IC50 (second compound 3.16 µM): > 10000 nM
- IC50 (second compound 10 µM): > 10000 nM
SMILES: COc1cc(Nc2ncc3c(n2)-c2ccc(Cl)cc2C(c2c(F)cccc2OC)=NC3)ccc1C(=O)O + Cc1cncc(-c2nc(NCCc3c[nH]c4ccccc34)c3ncn(C(C)C)c3n2)c1
- viability, T/C (second compound 0.1 µM, first compound 0.0316 µM): 82.1%
- viability, T/C (second compound 0.1 µM, first compound 0.1 µM): 75.4%
- viability, T/C (second compound 0.1 µM, first compound 0.316 µM): 66.3%
- viability, T/C (second compound 0.1 µM, first compound 1 µM): 63.3%
- viability, T/C (second compound 0.1 µM, first compound 3.16 µM): 58.3%
- viability, T/C (second compound 0.1 µM, first compound 10 µM): 55.5%
- viability, T/C (second compound 0.316 µM, first compound 0.0316 µM): 78.7%
- viability, T/C (second compound 0.316 µM, first compound 0.1 µM): 67.7%
- viability, T/C (second compound 0.316 µM, first compound 0.316 µM): 66.6%
- viability, T/C (second compound 0.316 µM, first compound 1 µM): 63.2%
- viability, T/C (second compound 0.316 µM, first compound 3.16 µM): 60.6%
- viability, T/C (second compound 0.316 µM, first compound 10 µM): 54.4%
- viability, T/C (second compound 1 µM, first compound 0.0316 µM): 91%
- viability, T/C (second compound 1 µM, first compound 0.1 µM): 78.6%
- viability, T/C (second compound 1 µM, first compound 0.316 µM): 80%
- viability, T/C (second compound 1 µM, first compound 1 µM): 68.2%
- viability, T/C (second compound 1 µM, first compound 3.16 µM): 61.9%
- viability, T/C (second compound 1 µM, first compound 10 µM): 57.8%
- viability, T/C (second compound 3.16 µM, first compound 0.0316 µM): 96.7%
- viability, T/C (second compound 3.16 µM, first compound 0.1 µM): 86.4%
- viability, T/C (second compound 3.16 µM, first compound 0.316 µM): 78.6%
- viability, T/C (second compound 3.16 µM, first compound 1 µM): 73.4%
- viability, T/C (second compound 3.16 µM, first compound 3.16 µM): 73.1%
- viability, T/C (second compound 3.16 µM, first compound 10 µM): 64.7%
- viability, T/C (second compound 10 µM, first compound 0.0316 µM): 65.5%
- viability, T/C (second compound 10 µM, first compound 0.1 µM): 49.9%
- viability, T/C (second compound 10 µM, first compound 0.316 µM): 57.9%
- viability, T/C (second compound 10 µM, first compound 1 µM): 49.9%
- viability, T/C (second compound 10 µM, first compound 3.16 µM): 55.5%
- viability, T/C (second compound 10 µM, first compound 10 µM): 64.4%
